Results as given in PMC11851430, “Workflow for E3 Ligase Ligand Validation for PROTAC Development” (ACS Chemical Biology, 2025).

Key:
[1] = tested on: Jurkat cells; test: CellTiterGlo cell viability assay; type: cell-based, human; conditions: Homo sapiens, 24 h, mean of triplicates, ^b/^c values estimated, read-out: IC50±sd/μM (cell viability)
Description: The effects of the compounds on cell viability was determined using the CellTiter-Glo® 2.0 Cell Viability Assay (Promega: G9241) following manufacturer’s protocol. Ten µL of Jurkat cells at […]
After equilibration, PROTACs were titrated at various concentrations using an Echo acoustic […]
volume of CellTiter-Glo® 2.0 reagent (10 µL) was added to each well and cells were incubated for 10 minutes at room temperature. Filtered luminescence was measured on a PHERAstar plate reader (BMG Labtech) and data was evaluated using GraphPad Prism 9 software employing a normalized curve it with the following equation: Y=Bottom + (Top-Bottom)/(1+10(LogEC50-X) *HillSlope).
Sample preparation. Jurkat cells (ATCC © HTB-22) were cultured in RPMI (Thermo: […]

[2] = target: T1, kinase protein levels in MCF-7 cells (Homo sapiens, UniProt A0A0B4J2F0); test: TMT-labeled quantitative proteomics; type: cell-based; conditions: protein PIGBOS1; MCF7; 1 µM; set1.1
T1 construct: endogenous in cells; host or cells: MCF-7
T1 sequence (A0A0B4J2F0 1-54): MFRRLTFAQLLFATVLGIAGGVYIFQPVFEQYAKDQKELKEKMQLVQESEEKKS
Description: (§1) 50 µl of SDS Lysis Buffer (2% SDS, 50 mM TRIS pH 8.5, 10 mM TCEP, 40 mM CAA) was added to each sample. Cells were transferred into low binding reaction tubes (Eppendorf:
(§2) Methanol/Chloroform Precipitation. 200 µl of methanol and 50 µl of chloroform were added to each sample reaction tube and mixed via vortex. 150 µl of milliQ-H2O were added and samples were vortexed further. Samples were centrifuged for 5 minutes at 15000 g and the aqueous layer above the interphase was removed. 150 µl of methanol was added, samples were vortexed and centrifuged for 10 minutes at 15000 g to precipitate the pellet. The aforementioned wash procedure was repeated twice before transferring the pellet to a new low bind reaction tube in which it was allowed to dry for 5 minutes.
(§3) Dissolving the Protein Pellet and Protein Quantification. 50 µl of digestion buffer (8 M Urea, 50 mM TRIS pH 8) was added to each sample before vortexing and shaking at 750 rpm at room temperature for 10 minutes to solubilize the pellet. Protein quantification via PierceTM […]
(§4) Protein Digestion. Samples were diluted 1:2 with 50 mM TRIS pH 8.5 to reach a final concentration of 4 M Urea. Lys-C (Promega: VA1170) was added at a 1:100 enzyme/substrate ratio. Samples were agitated at 550 rpm and 37 °C for 3 h. Samples were further diluted with 50 mM TRIS pH 8.5 to a final concentration of 1 M Urea and Trypsin (Promega: V5280) was added at a 1:100 enzyme/substrate ratio. Samples were agitated overnight at 550 rpm and 37 °C. The digestion was stopped the following day via addition of TFA to a final concentration […]
(§5) Solid Phase Extraction via C18 Cartridges. Sep-Pak C18 Cartridges (Waters: WAT054955) were used for solid phase extraction of digested peptides. For preconditioning of C18 cartridges, 1 mL of methanol was added to each column followed by 1 mL of solution B (0.1% formic acid, 80% acetonitrile) and 1 mL of solution A (0.1% formic acid, ddH2O) twice. Samples […]
(§6) were loaded to their respective columns and once samples had passed, columns were washed twice with solution A to remove unwanted components from the loading step. Elution of samples was carried out via introduction of 40% and 60% acetonitrile steps. Samples were dried and snap frozen in liquid nitrogen.
(§7) TMT-Labeling. Desalted peptides were dried and resuspended in TMT-labeling buffer (200 mM EPPS pH 8.2, 20% acetonitrile). 10 μg of peptides per condition were subjected to TMT labeling with 1:2.5 peptide TMT ratio (w/w) for 1 h at room temperature. The labeling reaction was quenched by addition of hydroxylamine to a final concentration of 0.5% and incubation at room temperature for 15 minutes. Successful TMT labeling was verified by mixing equimolar ratios of peptides and subjecting the mix to single shot LC-MS/MS analysis. For high pH reversed phase fractionation on a Dionex analytical HPLC, 50 µg of pooled and purified TMT labelled samples were resuspended in 10 mM ammonium-bicarbonate (ABC), 5% acetonitrile, and separated on a 250 mm long C18 column (Aeris Peptide XB-C18, 4.6 mm ID, 2.6 µm particle size; Phenomenex) using a multistep gradient from 100% solvent A (5% acetonitrile, 10 mM ABC in water) to 60% solvent B (90% acetonitrile, 10 mM ABC in water) over 70 minutes. Eluting peptides were collected every 45 seconds into a total of 96 fractions, which were cross-concatenated into 24 fractions and dried in a vacuum concentrator and resuspended in 3% acetonitrile with 0.1% TFA for LC-MS analysis.
(§8) Mass spectrometry data acquisition. Tryptic peptides were analyzed on an Orbitrap Lumos coupled to an easy nLC 1200 (ThermoFisher Scientific) using a 35 cm long, 75 µm ID fused-silica column packed in house with 1.9 µm C18 particles (Reprosil pur, Dr. Maisch), and kept at 50 °C using an integrated column oven (Sonation). HPLC solvents consisted of 0.1% formic acid in water (buffer A) and 0.1% formic acid and 80% acetonitrile in water (buffer B). Assuming

[3] = tested on: kinase protein levels in MCF-7 cells; test: TMT-labeled quantitative proteomics; type: cell-based, human; conditions: for log2FC (compound/DMSO): MCF7, 1 µM, set1.1
Description: as §1, §2, §3, §4, §5, §6, §7, §8

[4] = tested on: kinase protein levels in Jurkat cells; test: TMT-labeled quantitative proteomics; type: cell-based, human; conditions: Jurkat, 1 µM, set1.2
Description: cultured in RPMI (Thermo: 11875093) supplemented as mentioned above. Cells were seeded in 6 well plates (Greiner: 657160) at a cell density of 1·10 6 cells/well and left at 37 °C and 5% […]
as §1
0030108116) and samples were boiled for 15 minutes at 95 °C and sonicated for 2 minutes.
as §2
Dissolving the Protein Pellet and Protein Quantification. 50 µl of digestion buffer (8 M Urea, 50 mM TRIS pH 8) was added to each sample before vortexing and shaking at 750 rpm at room temperature for 10 minutes to solubilize the pellet. Protein quantification via PierceTM BCA Protein Assay Kit (Thermo: 23225) was carried out according to manufacturer’s protocol.
as §4, §5, §6
TMT-Labeling. Desalted peptides were dried and resuspended in TMT-labeling buffer (200 mM EPPS pH 8.2, 20% acetonitrile). 10 μg of peptides per condition were subjected to TMT labeling with 1:2.5 peptide TMT ratio (w/w) for 1 h at room temperature. The labeling reaction was quenched by addition of hydroxylamine to a final concentration of 0.5% and incubation at room temperature for 15 minutes. Successful TMT labeling was verified by mixing equimolar ratios of peptides and subjecting the mix to single shot LC-MS/MS analysis. For high pH reversed phase fractionation on a Dionex analytical HPLC, 50 µg of pooled and purified TMT labelled samples were resuspended in 10 mM ammonium-bicarbonate (ABC), 5% acetonitrile, […]
particle size; Phenomenex) using a multistep gradient from 100% solvent A (5% acetonitrile, 10 mM ABC in water) to 60% solvent B (90% acetonitrile, 10 mM ABC in water) over 70 minutes. Eluting peptides were collected every 45 seconds into a total of 96 fractions, which were cross-concatenated into 24 fractions and dried in a vacuum concentrator and resuspended in 3% acetonitrile with 0.1% TFA for LC-MS analysis.
Mass spectrometry data acquisition. Tryptic peptides were analyzed on an Orbitrap Lumos coupled to an easy nLC 1200 (ThermoFisher Scientific) using a 35 cm long, 75 µm ID fused-

[5] = target: VHL (Homo sapiens, UniProt P40337); test: NanoBRET target engagement assay; conditions: permeabilized cells
Sequence of VHL (P40337 whole entry): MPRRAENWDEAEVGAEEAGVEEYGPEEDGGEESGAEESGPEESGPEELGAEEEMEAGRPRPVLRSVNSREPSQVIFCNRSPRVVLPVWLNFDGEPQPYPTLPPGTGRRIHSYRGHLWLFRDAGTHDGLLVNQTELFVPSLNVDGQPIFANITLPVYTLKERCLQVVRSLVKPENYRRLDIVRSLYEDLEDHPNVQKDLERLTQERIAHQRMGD
Description: Compounds were pipetted at various concentrations using an Echo acoustic dispenser (Labcyte), immediately followed by Tracer K10 (Promega, Tracer DB ID: T000008) for AAK1 and Aurora A and VHL Tracer (Promega, Tracer DB ID: T000019) for VHL, at an optimum KD concentration chosen from TracerDB ( tracerdb.org), respectively.
To measure the BRET signal, the NanoBRET® NanoGlo Substrate (Promega:
N1573) was added as per the manufacturer’s protocol, and filtered luminescence was measured on a PHERAstar plate reader (BMG Labtech) equipped with a luminescence filter pair (450 nm BP filter (donor) and 610 nm LP filter (acceptor)). For NanoBRET® measurement in permeabilized cells, 25 nL of digitonin (0.05 μg/μL) was pipetted into each well using an
After incubation, the BRET signals were measured by a PHERAstar plate reader (BMG Labtech) following the same procedure as intact NanoBRET® measurement. Competitive displacement data were then normalized to controls and were plotted using GraphPad Prism 9 software employing a normalized 3-parameter curve fit with the following equation:

IC50 [1]: 8.5 ± 0.8 µM
P.Value (compound/DMSO) [2]: 0.867
log2FC (compound/DMSO) [2]: -0.01736
VHL binding [5]: did not bind strongly to VHL
SMILES: Cc1ncsc1-c1ccc(CNC(=O)[C@@H]2C[C@@H](O)CN2C(=O)[C@@H](NCCOCCOCCOCCOCCC(=O)N2CCN(c3ccc(Nc4ncc(Cl)c(Nc5ccccc5C(N)=O)n4)cc3)CC2)C(C)(C)C)cc1 [6-c]
kinase degradation ([3]; MCF-7 cells, 1 μM, 6 h): did not result in significant degradation of any kinase
log2FC (compound/DMSO) ([3]; protein NBPF19;NBPF15;NBPF8;NBPF10;NBPF26;NBPF14): -0.692
log2FC (compound/DMSO) ([3]; protein NUDT4): -0.0761
log2FC (compound/DMSO) ([4]; protein NUDT4): 0.05309
log2FC (compound/DMSO) ([4]; protein PIGBOS1): -0.1563
log2FC (compound/DMSO) ([4]; protein TRAV8-2): -0.1064
log2FC (compound/DMSO) ([4]; protein TRBV12-3;TRBV12-4): -0.03811
